Test results: PubChem BioAssay (NCI)
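Five compound concentrations were applied to cells in 96-well plates for 48 hours; endpoints were derived by simple linear interpolation of the resulting dose-response curve. TGI: total growth inhibition.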

Key:
Assay in all cases: NCI anticancer screen, dose series, 48 h
A498 renal = tested on: A498 renal
A549 NSCLC = tested on: A549 NSCLC
ACHN renal = tested on: ACHN renal
CAKI-1 renal = tested on: CAKI-1 renal
CCRF-CEM leukemia = tested on: CCRF-CEM leukemia
COLO 205 colon = tested on: COLO 205 colon
DLD-1 colon = tested on: DLD-1 colon
DMS 114 small cell lung = tested on: DMS 114 small cell lung
DMS 273 small cell lung = tested on: DMS 273 small cell lung
EKVX NSCLC = tested on: EKVX NSCLC
HCC-2998 colon = tested on: HCC-2998 colon
HCT-116 colon = tested on: HCT-116 colon
HCT-15 colon = tested on: HCT-15 colon
HL-60(TB) leukemia = tested on: HL-60(TB) leukemia
HOP-18 NSCLC = tested on: HOP-18 NSCLC
HOP-62 NSCLC = tested on: HOP-62 NSCLC
HOP-92 NSCLC = tested on: HOP-92 NSCLC
HT29 colon = tested on: HT29 colon
IGROV1 ovarian = tested on: IGROV1 ovarian
K-562 leukemia = tested on: K-562 leukemia
KM12 colon = tested on: KM12 colon
KM20L2 colon = tested on: KM20L2 colon
LOX IMVI melanoma = tested on: LOX IMVI melanoma
LXFL 529 NSCLC = tested on: LXFL 529 NSCLC
M14 melanoma = tested on: M14 melanoma
M19-MEL melanoma = tested on: M19-MEL melanoma
MALME-3M melanoma = tested on: MALME-3M melanoma
MOLT-4 leukemia = tested on: MOLT-4 leukemia
NCI-H226 lung = tested on: NCI-H226 lung
NCI-H23 lung = tested on: NCI-H23 lung
NCI-H460 lung = tested on: NCI-H460 lung
NCI-H522 lung = tested on: NCI-H522 lung
OVCAR-3 ovarian = tested on: OVCAR-3 ovarian
OVCAR-4 ovarian = tested on: OVCAR-4 ovarian
OVCAR-5 ovarian = tested on: OVCAR-5 ovarian
OVCAR-8 ovarian = tested on: OVCAR-8 ovarian
RPMI-8226 leukemia = tested on: RPMI-8226 leukemia
RXF 393 renal = tested on: RXF 393 renal
SF-268 CNS = tested on: SF-268 CNS
SF-295 CNS = tested on: SF-295 CNS
SF-539 CNS = tested on: SF-539 CNS
SK-MEL-2 melanoma = tested on: SK-MEL-2 melanoma
SK-MEL-28 melanoma = tested on: SK-MEL-28 melanoma
SK-MEL-5 melanoma = tested on: SK-MEL-5 melanoma
SK-OV-3 ovarian = tested on: SK-OV-3 ovarian
SN12C renal = tested on: SN12C renal
SNB-19 CNS = tested on: SNB-19 CNS
SNB-75 CNS = tested on: SNB-75 CNS
SNB-78 CNS = tested on: SNB-78 CNS
SR leukemia = tested on: SR leukemia
SW-620 colon = tested on: SW-620 colon
TK-10 renal = tested on: TK-10 renal
U251 CNS = tested on: U251 CNS
UACC-257 melanoma = tested on: UACC-257 melanoma
UACC-62 melanoma = tested on: UACC-62 melanoma
UO-31 renal = tested on: UO-31 renal
XF 498 CNS = tested on: XF 498 CNS
786-0 renal = tested on: 786-0 renal

SMILES: COC(=O)C(=O)C(C(=O)Nc1cccc(C)c1C)C1Sc2ccccc2NC1=O (stereo unspecified)
- TGI (A498 renal): > 25 µM
- TGI (A549 NSCLC): > 25 µM
- TGI (ACHN renal): > 25 µM
- TGI (CAKI-1 renal): > 25 µM
- TGI (CCRF-CEM leukemia): > 25 µM
- TGI (COLO 205 colon): > 25 µM
- TGI (DLD-1 colon): > 25 µM
- TGI (DMS 114 small cell lung): 19 µM
- TGI (DMS 273 small cell lung): > 25 µM
- TGI (EKVX NSCLC): > 25 µM
- TGI (HCC-2998 colon): > 25 µM
- TGI (HCT-116 colon): > 25 µM
- TGI (HCT-15 colon): > 25 µM
- TGI (HL-60(TB) leukemia): > 25 µM
- TGI (HOP-18 NSCLC): > 25 µM
- TGI (HOP-62 NSCLC): > 25 µM
- TGI (HOP-92 NSCLC): > 25 µM
- TGI (HT29 colon): > 25 µM
- TGI (IGROV1 ovarian): > 25 µM
- TGI (K-562 leukemia): > 25 µM
- TGI (KM12 colon): > 25 µM
- TGI (KM20L2 colon): > 25 µM
- TGI (LOX IMVI melanoma): > 25 µM
- TGI (LXFL 529 NSCLC): > 25 µM
- TGI (M14 melanoma): > 25 µM
- TGI (M19-MEL melanoma): > 25 µM
- TGI (MALME-3M melanoma): 24 µM
- TGI (MOLT-4 leukemia): > 25 µM
- TGI (NCI-H226 lung): > 25 µM
- TGI (NCI-H23 lung): > 25 µM
- TGI (NCI-H460 lung): > 25 µM
- TGI (NCI-H522 lung): > 25 µM
- TGI (OVCAR-3 ovarian): > 25 µM
- TGI (OVCAR-4 ovarian): > 25 µM
- TGI (OVCAR-5 ovarian): > 25 µM
- TGI (OVCAR-8 ovarian): > 25 µM
- TGI (RPMI-8226 leukemia): > 25 µM
- TGI (RXF 393 renal): 23.8 µM
- TGI (SF-268 CNS): > 25 µM
- TGI (SF-295 CNS): > 25 µM
- TGI (SF-539 CNS): > 25 µM
- TGI (SK-MEL-2 melanoma): 18.3 µM
- TGI (SK-MEL-28 melanoma): > 25 µM
- TGI (SK-MEL-5 melanoma): > 25 µM
- TGI (SK-OV-3 ovarian): > 25 µM
- TGI (SN12C renal): > 25 µM
- TGI (SNB-19 CNS): > 25 µM
- TGI (SNB-75 CNS): > 25 µM
- TGI (SNB-78 CNS): > 25 µM
- TGI (SR leukemia): > 25 µM
- TGI (SW-620 colon): > 25 µM
- TGI (TK-10 renal): > 25 µM
- TGI (U251 CNS): > 25 µM
- TGI (UACC-257 melanoma): > 25 µM
- TGI (UACC-62 melanoma): > 25 µM
- TGI (UO-31 renal): > 25 µM
- TGI (XF 498 CNS): > 25 µM

SMILES: O=C(NCCCCCCCCNC(=O)c1cnc2ccccc2n1)c1cnc2ccccc2n1
- TGI (786-0 renal): > 100 µM
- TGI (A498 renal): > 100 µM
- TGI (A549 NSCLC): > 100 µM
- TGI (ACHN renal): > 100 µM
- TGI (CAKI-1 renal): > 100 µM
- TGI (CCRF-CEM leukemia): > 100 µM
- TGI (COLO 205 colon): > 100 µM
- TGI (DLD-1 colon): > 100 µM
- TGI (DMS 114 small cell lung): > 100 µM
- TGI (DMS 273 small cell lung): > 100 µM
- TGI (EKVX NSCLC): > 100 µM
- TGI (HCT-116 colon): > 100 µM
- TGI (HCT-15 colon): > 100 µM
- TGI (HL-60(TB) leukemia): > 100 µM
- TGI (HOP-18 NSCLC): > 100 µM
- TGI (HOP-62 NSCLC): > 100 µM
- TGI (HOP-92 NSCLC): > 100 µM
- TGI (HT29 colon): > 100 µM
- TGI (IGROV1 ovarian): > 100 µM
- TGI (K-562 leukemia): > 100 µM
- TGI (KM12 colon): > 100 µM
- TGI (LOX IMVI melanoma): > 100 µM
- TGI (LXFL 529 NSCLC): > 100 µM
- TGI (M14 melanoma): > 100 µM
- TGI (M19-MEL melanoma): > 100 µM
- TGI (MALME-3M melanoma): > 100 µM
- TGI (MOLT-4 leukemia): > 100 µM
- TGI (NCI-H226 lung): > 100 µM
- TGI (NCI-H23 lung): > 100 µM
- TGI (NCI-H460 lung): > 100 µM
- TGI (OVCAR-3 ovarian): > 100 µM
- TGI (OVCAR-4 ovarian): > 100 µM
- TGI (OVCAR-5 ovarian): > 100 µM
- TGI (OVCAR-8 ovarian): > 100 µM
- TGI (RPMI-8226 leukemia): > 100 µM
- TGI (RXF 393 renal): > 100 µM
- TGI (SF-268 CNS): > 100 µM
- TGI (SF-295 CNS): > 100 µM
- TGI (SF-539 CNS): > 100 µM
- TGI (SK-MEL-2 melanoma): > 100 µM
- TGI (SK-MEL-5 melanoma): > 100 µM
- TGI (SK-OV-3 ovarian): > 100 µM
- TGI (SN12C renal): > 100 µM
- TGI (SNB-19 CNS): > 100 µM
- TGI (SNB-75 CNS): > 100 µM
- TGI (SNB-78 CNS): > 100 µM
- TGI (SR leukemia): > 100 µM
- TGI (SW-620 colon): > 100 µM
- TGI (TK-10 renal): > 100 µM
- TGI (U251 CNS): > 100 µM
- TGI (UACC-257 melanoma): > 100 µM
- TGI (UACC-62 melanoma): > 100 µM
- TGI (UO-31 renal): > 100 µM
- TGI (XF 498 CNS): > 100 µM
